These results are taken from US11492335B2, “Aryl or heteroaryl triazolone derivatives or salts thereof, or pharmaceutical compositions comprising the same” (YUHAN CORPORATION, priority 2018, dated 2022).

The IC50 is the concentration at which inhibition is half-maximal.

Counter-ions that a name gives are not always drawn.

Holding throughout (type): biochemical
Test [1] deals with T1, recombinant human DAO (diamine oxidase) (Homo sapiens, UniProt P19801).
T1 construct: purchased R&D systems
T1 sequence (P19801 20-751): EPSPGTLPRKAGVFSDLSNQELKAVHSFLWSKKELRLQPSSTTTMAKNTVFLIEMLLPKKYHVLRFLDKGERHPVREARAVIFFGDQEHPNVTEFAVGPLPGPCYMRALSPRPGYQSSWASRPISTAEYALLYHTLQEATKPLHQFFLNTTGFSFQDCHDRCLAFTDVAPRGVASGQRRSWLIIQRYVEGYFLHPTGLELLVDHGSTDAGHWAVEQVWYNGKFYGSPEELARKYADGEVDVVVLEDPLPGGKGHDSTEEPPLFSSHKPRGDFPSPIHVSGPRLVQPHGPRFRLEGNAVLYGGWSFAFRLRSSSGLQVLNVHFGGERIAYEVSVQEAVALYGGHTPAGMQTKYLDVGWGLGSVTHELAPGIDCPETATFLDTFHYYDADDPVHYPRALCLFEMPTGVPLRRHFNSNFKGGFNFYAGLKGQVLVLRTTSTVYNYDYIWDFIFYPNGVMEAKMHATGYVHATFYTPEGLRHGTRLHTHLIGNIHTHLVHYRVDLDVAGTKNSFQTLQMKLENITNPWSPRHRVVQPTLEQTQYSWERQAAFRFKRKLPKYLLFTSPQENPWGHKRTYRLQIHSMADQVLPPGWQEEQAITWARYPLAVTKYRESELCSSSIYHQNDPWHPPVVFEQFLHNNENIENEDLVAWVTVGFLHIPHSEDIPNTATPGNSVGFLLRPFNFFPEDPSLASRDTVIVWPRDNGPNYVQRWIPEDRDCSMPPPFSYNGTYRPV
Briefly: Activity on recombinant human DAO, Amplex Red method, 1 mM putrescine substrate. The note with it: recombinant human DAO, 1 mM putrescine substrate; read-out: Inhibitory Activity (IC50, nM) DAO. The method in brief:
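Inhibition of recombinant human DAO (diamine oxidase, R&D systems) was assessed with the Amplex Red Hydrogen Peroxide Assay Kit. Hydrogen peroxide produced from 1 mM putrescine was detected through an HRP-coupled reaction that converts Amplex Red into fluorescent resorufin, read at 544 nm excitation and 590 nm emission. IC50 values came from four-parameter logistic fits in GraphPad Prism.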

The target in test [2] is T2, recombinant human VAP-1 (Homo sapiens, UniProt Q16853).
T2 construct: purchased R&D systems
T2 sequence (Q16853 1-763): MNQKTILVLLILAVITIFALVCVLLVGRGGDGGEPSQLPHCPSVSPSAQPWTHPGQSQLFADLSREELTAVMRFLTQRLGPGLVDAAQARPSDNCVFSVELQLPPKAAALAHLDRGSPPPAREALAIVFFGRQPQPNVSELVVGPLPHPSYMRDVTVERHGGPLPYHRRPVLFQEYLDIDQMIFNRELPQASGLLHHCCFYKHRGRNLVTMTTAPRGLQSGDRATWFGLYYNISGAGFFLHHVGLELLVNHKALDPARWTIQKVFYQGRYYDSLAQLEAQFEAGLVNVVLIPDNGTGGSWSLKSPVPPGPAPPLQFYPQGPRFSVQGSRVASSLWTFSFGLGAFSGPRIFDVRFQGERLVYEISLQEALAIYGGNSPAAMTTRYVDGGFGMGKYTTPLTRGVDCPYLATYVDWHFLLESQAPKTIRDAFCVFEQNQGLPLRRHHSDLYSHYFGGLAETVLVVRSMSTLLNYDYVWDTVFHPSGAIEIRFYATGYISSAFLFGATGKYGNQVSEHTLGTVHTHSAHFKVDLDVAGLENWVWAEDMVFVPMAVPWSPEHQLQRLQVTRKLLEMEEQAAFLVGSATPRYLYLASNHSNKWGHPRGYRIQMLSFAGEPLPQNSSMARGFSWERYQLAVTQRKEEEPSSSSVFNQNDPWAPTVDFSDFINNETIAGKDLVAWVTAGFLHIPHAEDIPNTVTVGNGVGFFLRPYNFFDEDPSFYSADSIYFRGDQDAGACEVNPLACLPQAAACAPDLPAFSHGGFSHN
Briefly: Activity on recombinant human VAP-1, Amplex Red HRP-coupled hydrogen peroxide assay, benzylamine substrate. The note with it: recombinant human VAP-1, benzylamine substrate; read-out: Inhibitory Activity (IC50, nM) human VAP-1. A digest of the protocol: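 Compounds were preincubated with purified enzyme in 50 mM sodium phosphate pH 7.4 at 37 °C for 30 min, then 200 uM Amplex Red, 1 mM benzylamine and 1 U/mL HRP were added. Resorufin fluorescence (ex 544/em 590 nm) was followed over 1-2 h; IC50 came from 4-parameter fits of signal-rate inhibition.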

Test [3] deals with T3, recombinant human MAO-A (monoamine oxidase-A) (Homo sapiens, UniProt P21397).
T3 construct: purchased Sigma-Aldrich
T3 sequence (P21397 1-527): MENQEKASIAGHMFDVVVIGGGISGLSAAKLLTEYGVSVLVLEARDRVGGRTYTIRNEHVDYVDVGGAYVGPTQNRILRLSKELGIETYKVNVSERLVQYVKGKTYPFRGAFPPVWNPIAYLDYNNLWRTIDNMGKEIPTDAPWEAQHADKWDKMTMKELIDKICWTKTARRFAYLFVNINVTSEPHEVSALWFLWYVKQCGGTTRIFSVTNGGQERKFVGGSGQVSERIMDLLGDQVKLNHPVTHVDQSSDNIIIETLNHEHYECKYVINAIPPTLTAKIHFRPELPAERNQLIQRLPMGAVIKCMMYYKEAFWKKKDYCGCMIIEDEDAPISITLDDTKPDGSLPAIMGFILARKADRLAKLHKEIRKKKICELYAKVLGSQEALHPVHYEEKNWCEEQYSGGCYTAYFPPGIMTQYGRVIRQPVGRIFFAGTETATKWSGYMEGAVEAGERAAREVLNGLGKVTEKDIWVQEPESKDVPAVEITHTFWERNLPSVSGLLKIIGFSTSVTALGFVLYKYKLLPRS
Briefly: Activity on recombinant human MAO-A, Amplex Red method, 0.5 mM tyramine substrate. The settings on record: 0.5 mM tyramine substrate, read-out: Inhibitory Activity (IC50, nM) MAO-A. The method in brief: (§1)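 8-point, 1:3 dose-response, four-parameter logistic IC50 from reduction in fluorescence rate versus DMSO control. HRP/Amplex Red detection of H2O2 (ex 544, em 590 nm) after 30 min, 37 °C compound–enzyme preincubation in pH 7.4 phosphate buffer. MAO-A substrate: 0.5 mM tyramine; MAO-B: 1 mM benzylamine.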

Test [4] has as its target T4, recombinant human MAO-B (monoamine oxidase-B) (Homo sapiens, UniProt P27338).
T4 construct: purchased Sigma-Aldrich
T4 sequence (P27338 1-520): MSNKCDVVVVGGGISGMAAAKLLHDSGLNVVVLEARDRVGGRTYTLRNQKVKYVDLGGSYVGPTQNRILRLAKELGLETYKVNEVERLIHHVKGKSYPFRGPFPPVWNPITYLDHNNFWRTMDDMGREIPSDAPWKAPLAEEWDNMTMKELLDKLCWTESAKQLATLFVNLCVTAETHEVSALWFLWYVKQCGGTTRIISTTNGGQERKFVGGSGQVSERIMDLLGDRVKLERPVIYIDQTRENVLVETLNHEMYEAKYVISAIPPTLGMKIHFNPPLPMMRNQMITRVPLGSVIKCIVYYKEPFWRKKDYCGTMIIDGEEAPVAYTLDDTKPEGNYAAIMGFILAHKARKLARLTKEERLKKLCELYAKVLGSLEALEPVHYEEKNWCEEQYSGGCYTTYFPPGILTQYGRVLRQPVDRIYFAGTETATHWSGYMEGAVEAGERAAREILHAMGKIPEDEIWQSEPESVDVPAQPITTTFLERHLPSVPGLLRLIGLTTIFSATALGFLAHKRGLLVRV
Briefly: Activity on recombinant human MAO-B, Amplex Red method, 1 mM benzylamine substrate. The settings on record: 1 mM benzylamine substrate, read-out: Inhibitory Activity (IC50, nM) MAO-B. The method in brief: as §1

Consider `NC/C(=C\F)Cn1ncn(-c2cccc(-c3ccc(-c4noc(C5CC5)n4)cc3)n2)c1=O` [Example 178, 2-[(2E)-2-(aminomethyl)-3-fluoroprop-2-en-1-yl]-4-{6-[4-(5-cyclopropyl-1,2,4-oxadiazol-3-yl)phenyl]pyridin-2-yl}-2,4-dihydro-3H-1,2,4-triazol-3-one hydrochloride], for which the IC50 in test [1] is below 10 nM; in test [2], 1.4 nM; in test [3], 74000 nM; in test [4], 5490 nM.
Regarding `NC/C(=C\F)Cn1ncn(-c2cccc(-c3cccc(-c4noc(C5CC5)n4)c3)n2)c1=O` [Example 179, 2-[(2E)-2-(aminomethyl)-3-fluoroprop-2-en-1-yl]-4-{6-[3-(5-cyclopropyl-1,2,4-oxadiazol-3-yl)phenyl]pyridin-2-yl}-2,4-dihydro-3H-1,2,4-triazol-3-one hydrochloride], the 50% inhibitory concentration (IC50) in test [1] was 3.1 nM; in test [2], 1.1 nM; in test [3], 270000 nM; in test [4] it was 390 nM.
On the same counts, the results for `CC(C)c1nc(-c2ccc(-c3cccc(-n4cnn(C/C(=C/F)CN)c4=O)n3)cc2)no1` [Example 180, 2-[(2E)-2-(aminomethyl)-3-fluoroprop-2-en-1-yl]-4-(6-{4-[5-(propan-2-yl)-1,2,4-oxadiazol-3-yl]phenyl}pyridin-2-yl)-2,4-dihydro-3H-1,2,4-triazol-3-one] are 1.4 nM, 2.8 nM, 120000 nM and 180 nM.
Regarding `CC(C)c1nc(-c2cccc(-c3cccc(-n4cnn(C/C(=C/F)CN)c4=O)n3)c2)no1` [Example 181, 2-[(2E)-2-(aminomethyl)-3-fluoroprop-2-en-1-yl]-4-(6-{3-[5-(propan-2-yl)-1,2,4-oxadiazol-3-yl]phenyl}pyridin-2-yl)-2,4-dihydro-3H-1,2,4-triazol-3-one], the IC50 in test [1] is 2.1 nM; in test [2], 1.9 nM; in test [3], above 100000 nM; in test [4] it was 880 nM.
Turning to `NC/C(=C\F)Cn1ncn(-c2cccc(-c3ccc(N4CCCC4)cc3)n2)c1=O` [Example 183, 2-[(2E)-2-(aminomethyl)-3-fluoroprop-2-en-1-yl]-4-{6-[4-(pyrrolidin-1-yl)phenyl]pyridin-2-yl}-2,4-dihydro-3H-1,2,4-triazol-3-one hydrochloride], the IC50 in test [1] is 350 nM; in test [2], 2.5 nM; in test [3], 13000 nM; in test [4], above 10000 nM.
The like results for `NC/C(=C\F)Cn1ncn(-c2cccc(-c3ccc(N4CCNCC4)cc3)n2)c1=O` [Example 184, 2-[(2E)-2-(aminomethyl)-3-fluoroprop-2-en-1-yl]-4-{6-[4-(piperazin-1-yl)phenyl]pyridin-2-yl}-2,4-dihydro-3H-1,2,4-triazol-3-one hydrochloride] were, in that order, 110 nM, 1.4 nM, 14000 nM and above 10000 nM.
On the same counts, the results for `NC/C(=C\F)Cn1ncn(-c2cccc(-c3cccc(N4CCNCC4)c3)n2)c1=O` [Example 185, 2-[(2E)-2-(aminomethyl)-3-fluoroprop-2-en-1-yl]-4-{6-[3-(piperazin-1-yl)phenyl]pyridin-2-yl}-2,4-dihydro-3H-1,2,4-triazol-3-one hydrochloride] are 2.5 nM, 2.4 nM, above 100000 nM and above 10000 nM.
On the same counts, the results for `NC/C(=C\F)Cn1ncn(-c2cccc(-c3ccc(C(=O)N4CCOCC4)cc3)n2)c1=O` [Example 186, 2-[(2E)-2-(aminomethyl)-3-fluoroprop-2-en-1-yl]-4-{6-[4-(morpholin-4-ylcarbonyl)phenyl]pyridin-2-yl}-2,4-dihydro-3H-1,2,4-triazol-3-one hydrochloride] are below 10 nM, 0.91 nM, above 100000 nM and above 10000 nM.
